Data published in patent US20250017213A1, “COMPOSITION FOR MODULATING MICROBIAL GROWTH” (DSM AUSTRIA GMBH, priority 2021, published 2025).

Tested on: Lactobacillus reuteri F 275 (DSMZ 20016)
Experiment: microbe, parasite or virus in culture
Details: Limosilactobacillus reuteri

In the case of `O=CO` [formic, formic acid], the inhibition at […] (DSMZ20016, NCI-H125, 4 h) is reported as 23.4%, the inhibition at […] (DSMZ20016, NCI-H125, 5 h) is reported as 38.2% and the inhibition at […] (DSMZ20016, NCI-H125, 6 h) is reported as 39.8%. The inhibition at […] (DSMZ20016, NCI-H125, 7 h) was 39.7% and the inhibition at […] (DSMZ20016, NCI-H125, 10 h) was 39.5%.
